Test results as given in patent US12668596B2, “Process for crystallizing nalmefene hydrochloride” (RHODES TECHNOLOGIES, priority 2021, dated 2026).
Counter-ions that a name gives are not always drawn.

Assay: Solubility studies of nalmefene HCl monohydrate in aqueous HCl (visual dissolution at 80° C.)
Assay type: physicochemical
Procedure: A series of nalmefene HCl monohydrate solubility experiments were carried out in aqueous HCl. Nalmefene HCl monohydrate (520 mg) was charged to a 4 mL capped vial, followed by solvent (0-6 M HCl, 780 μL, 1.5 volumes) and heated to 80° C. on a pie-block. Increasing amounts of solvent were added periodically until dissolution was achieved (determined visually).
Seven dissolution experiments were carried out.

## C=C1CC[C@@]2(O)[C@H]3Cc4ccc(O)c5c4[C@@]2(CCN3CC2CC2)[C@H]1O5 [Nalmefene HCl, 17-(cyclopropylmethyl)-4,5α-epoxy-6-methylenemorphinan-3,14-diol]
Sample No. 0, HCl molarity 0 (water), 520 mg
  Volumes needed to dissolve nalmefene HCl at 80° C.: Fewer than 1.5 Volumes
Sample No. 1, HCl molarity 1, 520 mg
  Volumes needed to dissolve nalmefene HCl at 80° C.: 1.5 Volumes
Sample No. 2, HCl molarity 2, 520 mg
  Volumes needed to dissolve nalmefene HCl at 80° C.: 2.5 Volumes
Sample No. 3, HCl molarity 3, 520 mg
  Volumes needed to dissolve nalmefene HCl at 80° C.: 6.5 Volumes
Sample No. 4, HCl molarity 4, 520 mg
  Volumes needed to dissolve nalmefene HCl at 80° C.: 6.5 Volumes
Sample No. 5, HCl molarity 5, 520 mg
  Volumes needed to dissolve nalmefene HCl at 80° C.: 4.0 Volumes
Sample No. 6, HCl molarity 6, 520 mg
  Volumes needed to dissolve nalmefene HCl at 80° C.: 3.5 Volumes
Aqueous HCl 0-6 M
  HCl molarity at which solubility is at a minimum: 3-4 M HCl
